# Experimental data as given in US20100061948A1, “COMPOSITION FOR SKIN WHITENING COMPRISING ARTEMISININE” (priority 2007, published 2010).
# Tests used:
# [1] = test system: brown guinea pigs (Tortoiseshell guinea pigs); experiment: Cumulative irritation examined in brown guinea pigs; assay type: in vivo; conditions: topical application for 50 days, guinea pig
# Source text: (§1) To cause pigmentation in the brown guinea pig by UV, light-shielding aluminum foil with windows of 3×3 cm^2 was adhered to hair-removed abdominal skin of brown guinea pig, and then UV light was irradiated thereon with a SE lamp (wavelength 290-320 nm, Toshiba) (total irradiation energy=1350 mJ/cm^2). After UV irradiation, the aluminum foil was removed, and then the samples (artemisinine and arbutin) were applied as follows. […] From the maximum, each sample was applied. Applications were performed once or twice a day for 50 days. The samples were dissolved and diluted in a certain solvent (a mixed solvent of propylene glycol:ethanol:water=5:3:2) and applied with a swab. Another region was applied with the solvent only as a control. Occurrence of cumulative irritation also was examined.
# tyrosinase = biological target: T1, tyrosinase (Mus musculus, UniProt P11344); experiment: Inhibitory effect on tyrosinase activity in murine B16 melanoma cells; assay type: cell-based; conditions: B16 F10 cells, 3 days, read-out: Inhibition rate of tyrosinase activity (%)
# T1 construct: endogenous in cells; host or cells: murine melanoma B16 F10 cells
# T1 sequence (P11344 19-533): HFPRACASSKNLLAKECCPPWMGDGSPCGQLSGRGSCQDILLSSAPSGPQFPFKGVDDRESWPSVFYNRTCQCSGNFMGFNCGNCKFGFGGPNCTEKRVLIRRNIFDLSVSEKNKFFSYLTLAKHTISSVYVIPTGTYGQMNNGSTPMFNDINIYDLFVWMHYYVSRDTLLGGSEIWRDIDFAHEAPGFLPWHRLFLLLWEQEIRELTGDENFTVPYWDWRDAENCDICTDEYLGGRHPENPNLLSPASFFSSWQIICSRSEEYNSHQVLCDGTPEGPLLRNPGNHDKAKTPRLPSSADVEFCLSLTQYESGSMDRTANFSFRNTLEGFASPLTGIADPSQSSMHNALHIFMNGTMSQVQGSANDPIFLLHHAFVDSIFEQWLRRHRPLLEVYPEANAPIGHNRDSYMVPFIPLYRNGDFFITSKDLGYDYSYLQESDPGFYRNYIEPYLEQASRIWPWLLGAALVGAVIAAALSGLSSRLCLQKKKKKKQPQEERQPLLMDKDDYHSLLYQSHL
# Description: In order to confirm the inhibitory effect of artemisinine on tyrosinase activity, murine B16 melanoma cells were used to perform the following experiment.
# Murine melanoma (B16 F10) cells were inoculated on 6 well plates containing DMEM media supplemented with 10% FBS (1×10^5 per well), and cultured in 5% CO2 at 37° C. until reaching about 80% confluency. Then, media was removed from the cells, replaced with fresh media, and cultured in 5% CO2 at37° C. for 3 days. […] Media was removed from the cells, and the cells were washed with PBS, followed by trypsin treatment. The cells were recovered, and counted using a hematocytometer. Then, the cells were centrifuged at 5,000 to 10,000 rpm for 10 min, and the supernatant was removed to obtain a pellet. The pellet was suspended in a lysis buffer, and centrifuged at 12,000 rpm for 10 min to collect the supernatant. Absorbance was determined at 492 nm using a microplate reader to assess the tyrosinase activity per cell. As a control group, arbutin was used.
# [2] = test system: brown guinea pigs (Tortoiseshell guinea pigs); experiment: Whitening effect on UV-induced pigmentation in brown guinea pigs (chromameter L*); assay type: in vivo; conditions: topical once or twice a day for 50 days, UV-pigmented guinea pig skin
# Source text: In order to confirm the whitening effect of artemisinine in animals, brown guinea pigs (Tortoiseshell guinea pigs), which are known to increase pigmentation upon exposure to UV like human, were used to perform the following experiment.
# as §1
# The degree of skin pigmentation was determined using a chromameter (MINOLTA CR2002) to evaluate the effects. L*A*B* colorimetric system is used to classify color, and an L* value was used as standard in the present invention. The L* value was corrected using white board standard, and measured more than five times at one region, repeatedly. Pigmentation was evenly distributed. Skin color differences (ΔL*) between initial application point and terminal application point were obtained by using the following Mathematical Equation 1, and then using these values, their effects of the applied samples were evaluated.
# ΔL*=L*value at terminal application day−L*value at initial application day [Mathematical Equation 1]
# ΔL* values were obtained at sample application region and control application region and compared. From the result, the whitening effects of the samples can be evaluated.
# [3] = test system: Murine melanoma (B16 F10) cells; experiment: Cytotoxicity at treatment concentrations in B16 F10 cells; assay type: cell-based; conditions: 10 μM, 50 μM and 100 μM
# [4] = test system: Murine melanoma (B16 F10) cells; experiment: Inhibitory effect on melanin synthesis in murine B16 melanoma cells; assay type: cell-based; conditions: Mus musculus, 72 h, 3 days, read-out: Inhibition rate of melanin synthesis (%)
# Description: In order to confirm the inhibitory effect of artemisinine on melanin synthesis, murine B16 melanoma cells were used to perform the following experiment.
# Artemisinine used in the present experiment was purchased from Sigma.
# Murine melanoma (B16 F10) cells were inoculated on 6 well plates containing DMEM media supplemented with 10% FBS (fetal bovine serum) (1×10^5 per well), and cultured in 5% CO2 at37° C. until reaching about 80% confluency. Then, media was removed from the cells, replaced with fresh media, and cultured in 5% CO2 at 37° C. for 3 days. […] Media was removed from the cells, and the cells were washed with PBS (phosphate buffered saline), followed by trypsin treatment. The cells were recovered, and counted using a hemocytometer. Then, the cells were centrifuged at 5,000 to 10,000 rpm for 10 min, and the supernatant was removed to obtain a pellet. The pellet was dried at 60° C., and suspended in 100 […] of 1 M sodium hydroxide solution containing 10% DMSO in a 60° C. water bath to obtain melanin in the cells. Absorbance was determined at 490 nm using a microplate reader to assess the melanin content per cell. As a control group, a known inhibitor of melanin synthesis, arbutin, was used.
SMILES,Cumulative irritation [1],inhibition at 10 µM (tyrosinase; 10 μM) [%],inhibition at 50 µM (tyrosinase; 50 μM) [%],inhibition at 100 µM (tyrosinase) [%],Whitening effect (ΔL*) ([2]; 0.2 %),Whitening effect (ΔL*) ([2]; 1.0 %),Cytotoxicity [3],inhibition at 10 µM ([4]; 10 μM) [%],inhibition at 50 µM ([4]; 50 μM) [%],inhibition at 100 µM [4] [%]
"C[C@@H]1CC[C@H]2[C@@H](C)C(=O)O[C@@H]3O[C@@]4(C)CC[C@@H]1[C@]32OO4 [Artemisinine, artemisinine]",no cumulative irritation,19,38,67,0.40,0.65,no cytotoxicity,22,50,65
"OC[C@H]1O[C@@H](Oc2ccc(O)cc2)[C@H](O)[C@@H](O)[C@@H]1O [Arbutin, arbutin]",–,–,–,45,–,0.55,–,–,–,52
